Reference: ChEMBL document CHEMBL6087462, “Cuminaldehyde Potentiates Antiproteolytic Peptide Efficacy via Parallel Pathways of Enhanced Inner Membrane-Damaging Activity and Inhibition of Bacterial Energy Metabolism” (J Med Chem, 2025)

Experiments:
Assay type in all cases: functional
Escherichia coli [1] = assay: Synergistic antimicrobial activity against Escherichia coli UB1005 assessed as fractional inhibitory concentration index in presence of cuminaldehyde by checkerboard broth microdilution assay
Staphylococcus aureus [2] = assay: Synergistic antimicrobial activity against Staphylococcus aureus 43300 assessed as fractional inhibitory concentration index in presence of carvacrol by checkerboard broth microdilution assay
Staphylococcus aureus [3] = assay: Synergistic antimicrobial activity against Staphylococcus aureus 25923 assessed as fractional inhibitory concentration index in presence of citral by checkerboard broth microdilution assay
Escherichia coli [4] = assay: Antimicrobial activity against Escherichia coli UB 1005 assessed as reduction in microbial growth in presence of cuminaldehyde by CLSI based broth microdilution method
Escherichia coli [5] = assay: Antimicrobial activity against Escherichia coli ATCC 25922 assessed as reduction in microbial growth in presence of cuminaldehyde by CLSI based broth microdilution method
Enterococcus faecalis = assay: Antimicrobial activity against Enterococcus faecalis ATCC 29212 assessed as reduction in microbial growth in presence of cuminaldehyde by CLSI based broth microdilution method
[6] = test system: Staphylococcus epidermidis; assay: Synergistic antimicrobial activity against Staphylococcus epidermidis 12228 assessed as fractional inhibitory concentration index in presence of carvacrol by checkerboard broth microdilution assay
Staphylococcus aureus [7] = assay: Synergistic antimicrobial activity against Staphylococcus aureus 25923 assessed as fractional inhibitory concentration index in presence of cuminaldehyde by checkerboard broth microdilution assay
Escherichia coli [8] = assay: Synergistic antimicrobial activity against Escherichia coli 25922 assessed as fractional inhibitory concentration index in presence of thymol by checkerboard broth microdilution assay

For `CC[C@H](C)[C@H](NC(=O)[C@@H](NC(=O)[C@@H](CCCNC(=N)N)NC(=O)[C@H](C)NC(=O)[C@H](C)NC(=O)[C@@H](N)Cc1cccc2ccccc12)[C@@H](C)CC)C(=O)N[C@@H](CC(C)C)C(=O)N[C@H](CCCNC(=N)N)C(=O)N[C@@H](Cc1c[nH]c2ccccc12)C(=O)N[C@H](CCCNC(=N)N)C(=O)N[C@@H](Cc1ccccc1)C(=O)N[C@@H](CCCNC(=N)N)C(=O)O`, the “fractional inhibitory concentration index (FICI)” value (Escherichia coli [1]) was 0.188, the “fractional inhibitory concentration index (FICI)” value (Staphylococcus aureus [2]) was 0.75 and the “fractional inhibitory concentration index (FICI)” value (Staphylococcus aureus [3]) was 0.25. The MIC (Escherichia coli [4]) was 0.5 µg/mL, the MIC (Escherichia coli [5]) was 1 µg/mL and the MIC (Enterococcus faecalis) was 1 µg/mL. For the same molecule, the “fractional inhibitory concentration index (FICI)” value [6] was 1, the “fractional inhibitory concentration index (FICI)” value (Staphylococcus aureus [7]) was 0.188 and the “fractional inhibitory concentration index (FICI)” value (Escherichia coli [8]) was 0.313.
